US20240130368A1, “HERBICIDAL COMPOSITION” (Nippon Soda Co., Ltd., priority 2021, published 2024)

Legend:
Format in all cases: in vivo
Avena fatua = test: Test Example 5: spraying on the soil surface, herbicidal effect from above ground weight; conditions: Compound (I-3) alone, sprayed on the soil surface, seven weeks after spraying
Procedure: (§1) POA allylphenyl ether (4.1 parts by weight), POE-POP glycol (1 part by weight), POE sorbitan laurate (0.8 parts by weight), glycerin (2.6 parts by weight), dimethylformamide (65.9 parts by weight), N-methylpyrrolidone (5.1 parts by weight), cyclohexanone (15.4 parts by weight), and aromatic hydrocarbons (5.1 parts by weight) were mixed and dissolved to prepare an emulsion. The active ingredient (4 mg) of the composition of the present invention was dissolved in this emulsion (100 μL) to prepare a test emulsion. It should be noted that POA means “polyoxyalkylene”, POE means “polyoxyethylene”, and POP means “polyoxypropylene”.
(§2) For the evaluation of the herbicidal effects, the above ground weights of weeds in the untreated and treated areas were measured for each weed 3 weeks after spraying treatment, and the herbicidal effect (%) was calculated by the following calculation formula.
(§3) Herbicidal effect (%)=[(above ground weight of weeds in untreated area)−(above ground weight of weeds in treated area)/(above ground weight of weeds in untreated area)]×100
(§4) A test emulsion was prepared in the same manner as in Test Example 4.
(§5) A 300 cm^2 pot was filled with soil, and seeds of Triticum aestivum, multidrug-resistant Alopecurus myosuroides, Lolium multiflorum and Avena fatua were sown into the surface layer, and covered with soil to a thickness of 0.5 to 1 cm. The above test emulsion was diluted so that the amount of the active ingredient became a predetermined amount, and sprayed on the soil surface at a spray water volume of 250 L per hectare, followed by growth in an outdoor environment.
(§6) Seven weeks after spraying, the evaluation was carried out in the same manner as in Test Example 4, except that the above ground weights of weeds in the untreated and treated areas were measured for each weed.
(§7) The following grass species were used as grass species to be controlled [scientific names]. • Blackgrass * [Alopecurus myosuroides] • Italian ryegrass [Lolium multiflorum] • Wild oat [Avena fatua]

Lolium multiflorum = test: as above; conditions: Compound (I-3) alone, sprayed on the soil surface, seven weeks after spraying
Procedure: as §1, §2, §3, §4, §5, §6, §7

[1] = test system: multidrug-resistant Alopecurus myosuroides; test: as above; conditions: Compound (I-3) alone, sprayed on the soil surface, seven weeks after spraying, Alopecurus myosuroides multidrug-resistant strain
Procedure: as §1, §2, §3, §4, §5, §6, §7

Zea mays = test: Test Example 6: foliar spraying treatment, herbicidal effect from above ground weight (useful plant); conditions: Compound (I-3) alone
Procedure: as §1, §4
(§8) A 300 cm^2 pot was filled with soil, and seeds of Zea mays and Ipomoea hederacea were sown into the surface layer, and then grown in a greenhouse after being covered lightly with soil. When each plant grew to a plant height of 7 to 9 cm, the above test emulsion was diluted so that the amount of the active ingredient became a predetermined amount, and sprayed on the foliage with a small sprayer at a spray water volume of 250 L per hectare.
(§9) Test Examples 6-1 and 6-3 were evaluated in the same manner as in Test Example 4.
(§10) The expected values of the herbicidal effects in Test Example 6-2 were calculated using the following Colby's formula (Colby, S. R., Calculating synergistic and antagonistic responses of herbicide combinations, Weeds, 15, pp. 20-22 (1967)).
(§11) X indicates an herbicidal effect (%) by applying the compound (1) alone, Y and Z each indicate an herbicidal effect (%) by applying one of the two types of the compounds (II) alone, and E indicates an expected value (%) of the herbicidal effect by applying combinations of the compound (I) and two types of the compounds (II).
(§12) When the actual measured value (%) of the herbicidal effect by the combined application of the compound (I) and two types of the compounds (11) is greater than the expected value E, it can be regarded that the combined application of the compound (1) and two types of the compounds (II) has a synergistic effect.
The following plants were used as useful plants [scientific names]. • Corn for animal feed [Zea mays]

Ipomoea hederacea = test: Test Example 6: foliar spraying treatment, herbicidal effect from above ground weight; conditions: Compound (I-3) alone
Procedure: as §1, §4, §8, §9, §10, §11, §12
The following grass species were used as grass species to be controlled [scientific names]. • Morning glory [Ipomoea hederacea]

Compound: COC12OC1(c1ccc(C(F)(F)F)c3c1CCCS3(=O)=O)C=NN(C)C2=O (stereo not shown) [Compound (I-3), 1-methoxy-3-methyl-6-(1,1-dioxido-8-(trifluoromethyl)thiochroman-5-yl)-7-oxa-3,4-diazabicyclo[4.1.0]hept-4-en-2-one]
- Actual measured value of herbicidal effect (Avena fatua; 63 gai/ha): 0%
- Actual measured value of herbicidal effect (Avena fatua; 125 gai/ha): 20%
- Actual measured value of herbicidal effect (Lolium multiflorum; 63 gai/ha): 60%
- Actual measured value of herbicidal effect (Lolium multiflorum; 125 gai/ha): 80%
- Actual measured value of herbicidal effect ([1]; 63 gai/ha): 0%
- Actual measured value of herbicidal effect ([1]; 125 gai/ha): 30%
- Actual measured value of herbicidal effect (Zea mays; 94 gai/ha): 0%
- Actual measured value of herbicidal effect (Zea mays; 125 gai/ha): 0%
- Actual measured value of herbicidal effect (Ipomoea hederacea; 94 gai/ha): 80%
- Actual measured value of herbicidal effect (Ipomoea hederacea; 125 gai/ha): 60%
